From patent US20260216131A1, “METHODS OF TREATING BREAST HYPERPLASIA USING TEZACAFTOR” (Jiangsu Bioscene Pharmaceutical Co., Ltd., priority 2023, published 2026)
Where “and” joins values, the source holds several entries; their conditions need not be identical. Equal values may be shown once. Entries after “also recorded” stand apart in the source; their conditions may differ.

Experiments:
Format in all cases: in vivo
[1] = test system: rat model of breast hyperplasia; experiment: Ovarian index and uterine index in rat model of breast hyperplasia; settings: after 30 days of administration; for Ovarian index (ovary weight/body weight) / Uterine index (uterine weight/body weight): gavage, tezacaftor 40 mg/kg/day, tamoxifen 4 mg/kg/day; for Change in ovarian index compared with the model group / Change in uterine index compared with the model group: result in words
Source text: (§1) Study Design: Thirty-two female SD rats, aged 7-8 weeks and weighing 200-250 g, were used. The rats were randomly divided into four groups: a normal control group, a model group, a tezacaftor treatment group (hereinafter referred to as the “treatment group”), and a tamoxifen treatment group (hereinafter referred to as the “positive control group”).
(§2) Before administration of the test drugs, breast hyperplasia was induced in the rats of the model group, the treatment group, and the positive control group. Specifically, estradiol benzoate injection was intramuscularly administered to the inner thigh of each rat at a dose of 0.5 mg/kg/day for 25 consecutive days. Starting on day 26, progesterone injection was intramuscularly administered to the inner thigh at a dose of 5 mg/kg/day for 5 consecutive days. The total modeling period was 30 days.
(§3) Normal control group: Normal saline in an equal volume was intramuscularly administered to the inner side of the hind limb of each rat once daily for 30 consecutive days, with the left and right hind limbs injected alternately. Beginning on day 31, normal saline was administered by gavage for 30 days.
(§4) Model group: Beginning on day 31, the vehicle was administered by gavage for 30 consecutive days. Samples were collected 0.5 hour after the last administration.
(§5) Treatment group: Beginning on day 31, tezacaftor was administered by gavage at a dose of 40 mg/kg/day for 30 consecutive days. Samples were collected 0.5 hour after the last administration.
(§6) Positive control group: Beginning on day 31, tamoxifen was administered by gavage at a dose of 4 mg/kg/day for 30 consecutive days. Samples were collected 0.5 hour after the last administration.
(§7) Evaluation indices: (1) nipple diameter and height; (2) ovarian index and uterine index; (3) changes in serum E2 and PROG levels; and (4) the number of mammary lobular acini, the acinar lumen diameter, and the duct diameter in rats.
In the study of Embodiment 1, after 30 days of administration, the uterus weight, ovary weight, and body weight of the rats were measured. The uterine index was calculated as uterine weight/body weight, and the ovarian index was calculated as ovary weight/body weight. A comparison of the ovarian index and uterine index among the different groups is shown in FIG. 2, and the corresponding data are presented in Table 3.

[2] = test system: rat model of breast hyperplasia; experiment: Nipple diameter and height in rat model of breast hyperplasia; settings: for Nipple Height / Nipple Diameter: female SD rats, gavage, tezacaftor 40 mg/kg/day, tamoxifen 4 mg/kg/day; for Nipple Diameter: in mm (unit assumed); for Change in nipple diameter compared with the model group / Change in nipple height compared with the model group: after 30 days of administration, result in words
Source text: as §1, §2, §3, §4, §5, §6
Evaluation indices: (1) nipple diameter and height; (2) ovarian index and uterine index; (3) changes in serum E2 and PROG levels; and (4) the number of mammary lobular acini, the acinar lumen diameter, and the duct diameter in rats. […]

[3] = test system: rat model of breast hyperplasia; experiment: Serum E2 and PROG levels in rat model of breast hyperplasia; settings: after 30 days of administration; assay kit; result in words
Source text: as §1, §2, §3, §4, §5, §6, §7
In the study of Embodiment 1, after 30 days of administration, serum E2 and PROG levels in rats of each group were measured using assay kits.

[4] = test system: rat model of breast hyperplasia; experiment: Histopathological evaluation (H&E) of mammary glands in rat model of breast hyperplasia; set-up: key to Histopathological Examination Score of mammary gland: Absence of a lesion was scored as 0; 1: very slight; 2: mild; 3: moderate; 4: severe; settings: after 30 days of administration; for Breast hyperplasia compared with the model group: H&E pathology, result in words; for Histopathological Examination Score of mammary gland: individual animals No. 1-8, H&E staining
Source text: as §1, §2, §3, §4, §5, §6, §7
In the study of Embodiment 1, after 30 days of administration, mammary gland tissues from rats in each group were collected, dehydrated, embedded, and sectioned. The sections were subjected to H&E staining and pathological analysis.

[5] = Day 0 of treatment (baseline after modeling)

Row | Structure (SMILES) | Ovarian index (ovary weight/body weight) [1] [%] | Uterine index (uterine weight/body weight) [1] [%] | Change in ovarian index compared with the model group [1] | Change in uterine index compared with the model group [1] | Nipple Height [2, 5] [mm] | Nipple Diameter [2, 5] | Nipple Height ([2]; Day 15 of treatment) [mm] | Nipple Diameter ([2]; Day 15 of treatment) | Nipple Height ([2]; Day 30 of treatment) [mm] | Nipple Diameter ([2]; Day 30 of treatment) | Change in nipple diameter compared with the model group [2] | Change in nipple height compared with the model group [2] | Serum E2 level compared with the model group [3] | Serum PROG level compared with the model group [3] | Breast hyperplasia compared with the model group [4] | Histopathological Examination Score of mammary gland [4]
1 | CC/C(=C(\c1ccccc1)c1ccc(OCCN(C)C)cc1)c1ccccc1 [tamoxifen] | 0.145 ± 0.052 | 0.050 ± 0.015 | decreases | decreases | 1.94 ± 0.16 | 1.63 ± 0.12 | 1.70 ± 0.17 | 1.28 ± 0.14 | 1.56 ± 0.12 | 1.11 ± 0.10 | decreases | decreases | significantly decreased | significantly increased | alleviated | 0 and 1 (4×) and 2 (3×)
2 | CC(C)(CO)c1cc2cc(NC(=O)C3(c4ccc5c(c4)OC(F)(F)O5)CC3)c(F)cc2n1C[C@@H](O)CO [tezacaftor] | 0.186 ± 0.088 | 0.055 ± 0.012 | decreases | significantly reduced; also recorded: decreases | 2.03 ± 0.12 | 1.63 ± 0.14 | 1.73 ± 0.21 | 1.24 ± 0.13 | 1.61 ± 0.13 | 1.12 ± 0.08 | significantly reduced; also recorded: decreases | significantly reduced; also recorded: decreases | significantly decreased; also recorded: significantly improved | significantly increased; also recorded: significantly improved | alleviated; also recorded: alleviating breast hyperplasia | 1 (4×) and 2 (4×)
